Source: ChEMBL document CHEMBL1268944, “The antiplasmodial activity of norcantharidin analogs” (Bioorg Med Chem Lett, 2010)
pIC50: −log10 of the molar value.

Tests used:
[1] = Inhibition of human PP2A expressed in Escherichia coli BL21
[2] = test system: Plasmodium falciparum; assay: Antiplasmodial activity against chloroquine-sensitive Plasmodium falciparum D6 assessed as inhibition of parasite LDH activity after 72 hrs by malstat reagent method; assay type: functional, organism-based; settings: D6, 72 h
[3] = Inhibition of human PP1 expressed in Escherichia coli BL21
[4] = test system: Plasmodium falciparum; assay: Antiplasmodial activity against chloroquine-resistant Plasmodium falciparum W2 assessed as inhibition of parasite LDH activity […] after 72 hrs by malstat reagent method; assay type: functional, organism-based; settings: W2, 72 h
[5] = Inhibition of human PP1
[6] = test system: Plasmodium falciparum; assay: Ratio of Norcantharidin IC50 to compound IC50 for chloroquine-resistant Plasmodium falciparum W2; assay type: functional
[7] = Inhibition of human PP2A
[8] = test system: Plasmodium falciparum; assay: Ratio of Norcantharidin IC50 to compound IC50 for chloroquine-sensitive Plasmodium falciparum D6; assay type: functional

Row | Compound | pIC50 [1] | pIC50 [2] | pIC50 [3] | pIC50 [4] | pIC50 [5] | Ratio IC50 [6] | pIC50 [7] | Ratio IC50 [8]
1 | O=C1OC(=O)C2C3CCC(O3)C12 (centres undefined) [DEMETHYL-CANTHARIDIN] | 6.40 | 4.22 | 5.70 | 4.30 |  |  |  | 
2 | C[C@@]12C(=O)OC(=O)[C@]1(C)[C@H]1CC[C@@H]2O1 [CANTHARIDIN] | 6.70 | 5.05 | 5.74 | 5.05 |  |  |  | 
3 | C=CCNC(=O)C1C(C(=O)O)[C@@H]2CC[C@H]1O2 (some centres undefined) |  | 5.52 |  | 5.52 | 4.40 | 20 | 5.00 | 20
